Key:
[1] = molecular target: JAK1 (recombinant purified GST-tagged catalytic domain) (Homo sapiens (Human), UniProt P23458); assay: Jak Biochemical HTRF Assay (JAK1); conditions: [ATP] 31.8 μM
Outline: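 GST-tagged human catalytic domains of JAK1 or JAK2 phosphorylated a biotinylated peptide substrate for 120 min at room temperature after ATP addition. Reaction quenched with EDTA stop buffer containing streptavidin-Dylight 650 and Eu-pY20 antibody; HTRF 665/615 nm ratio normalized to untreated controls, IC50 from 4-parameter fit.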

[2] = molecular target: JAK2 (recombinant purified GST-tagged catalytic domain) (Homo sapiens (Human), UniProt O60674); assay: Jak Biochemical HTRF Assay (JAK2); conditions: [ATP] 8.5 μM
Sequence of JAK2 (recombinant purified GST-tagged catalytic domain) (O60674 849-1124): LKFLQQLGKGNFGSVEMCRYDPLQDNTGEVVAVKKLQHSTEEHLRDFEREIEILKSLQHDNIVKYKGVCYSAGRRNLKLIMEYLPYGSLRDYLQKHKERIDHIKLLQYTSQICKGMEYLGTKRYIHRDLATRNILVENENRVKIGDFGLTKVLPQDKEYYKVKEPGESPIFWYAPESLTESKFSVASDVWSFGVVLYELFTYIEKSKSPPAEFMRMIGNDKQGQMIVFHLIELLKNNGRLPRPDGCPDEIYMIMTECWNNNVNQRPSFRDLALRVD

Sequence of JAK1 (recombinant purified GST-tagged catalytic domain) (P23458 875-1153): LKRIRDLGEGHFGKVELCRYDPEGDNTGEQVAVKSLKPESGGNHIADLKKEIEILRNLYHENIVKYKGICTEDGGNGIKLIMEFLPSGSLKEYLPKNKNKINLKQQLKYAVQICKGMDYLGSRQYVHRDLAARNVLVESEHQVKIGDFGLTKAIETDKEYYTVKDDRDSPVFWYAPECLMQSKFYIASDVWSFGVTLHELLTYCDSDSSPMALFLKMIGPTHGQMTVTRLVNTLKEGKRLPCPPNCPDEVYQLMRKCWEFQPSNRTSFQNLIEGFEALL

| Structure (SMILES) | IC50 [1] [nM] | IC50 [2] [nM] |
| --- | --- | --- |
| CC1(C)CCCN1S(=O)(=O)c1ccc(Nc2nn([C@]3(CC#N)CCCOC3)c3cc[nH]c(=O)c23)cc1 [Example 5-107, {(3S)-3-[3-({4-[(2,2-dimethylpyrrolidin-1-yl)sulfonyl]phenyl}amino)-4-oxo-4,5-dihydro-1H-pyrazolo[4,3-c]pyridin-1-yl]tetrahydro-2H-pyran-3-yl} acetonitrile] | 0.2 | 0.33 |
| CC(C)(C)N[C@@H](c1ccc(Nc2nn([C@]3(CC#N)CCOC[C@@H]3F)c3cc[nH]c(=O)c23)cc1)C(F)(F)F (single isomer, unassigned) [Example 5-270, 2-((3R,4R or 3S,4S)-4-(3-((4-((S or R)-1-(tert-butylamino)-2,2,2-trifluoroethyl)phenyl)amino)-4-oxo-4,5-dihydro-1H-pyrazolo[4,3-c]pyridin-1-yl)-3-fluorotetrahydro-2H-pyran-4-yl)acetonitrile] | 0.12 | 0.13 |
| CN(C)S(=O)(=O)c1ccc(Nc2nn(C3(CC#N)CCN(C(=O)c4cccc(Cl)c4)CC3)c3cc[nH]c(=O)c23)cc1 [Example 9-14, 4-[(1-{1-[(3-chlorophenyl)carbonyl]-4-(cyanomethyl)piperidin-4-yl}-4-oxo-4,5-dihydro-1H-pyrazolo[4,3-c]pyridin-3-yl)amino]-N,N-dimethylbenzenesulfonamide] | 0.23 | 1.96 |
| CC(C)(C)OC(=O)N1CC(CC#N)(n2nc(NC3CC3)c3c(=O)[nH]ccc32)C1 [Example 3, tert-butyl 3-(cyanomethyl)-3-[3-(cyclopropylamino)-4-oxo-4,5-dihydro-1H-pyrazolo[4,3-c]pyridin-1-yl]azetidine-1-carboxylate] | 40.8 | 2.51 |
| CN(C)[C@H]1CC[C@](CC#N)(n2nc(Nc3ccc4c(c3)CN(C(C)(C)C)S4(=O)=O)c3c(=O)[nH]ccc32)CC1 [Example 18-37, Trans 2-(1-(3-((2-(tert-butyl)-1,1-dioxido-2,3-dihydrobenzo[d]isothiazol-5-yl)amino)-4-oxo-4,5-dihydro-1H-pyrazolo[4,3-c]pyridin-1-yl)-4-(dimethylamino)cyclohexyl)acetonitrile] | 0.23 | 4.43 |
| COC(=O)N1CCC(CC#N)(n2nc(Nc3ccc4c(c3)CCC4(O)C(F)(F)F)c3c(=O)[nH]ccc32)CC1 (single isomer, unassigned) [Example 5-143, (R or S)-methyl 4-(cyanomethyl)-4-(3-((1-hydroxy-1-(trifluoromethyl)-2,3-dihydro-1H-inden-5-yl)amino)-4-oxo-4,5-dihydro-1H-pyrazolo[4,3-c]pyridin-1-yl)piperidin-1-carboxylate] | 0.18 | 0.66 |
| CC(C)(C)OC(=O)N1CC(CC#N)(n2nc(Nc3ccnc(C(F)(F)F)c3)c3c(=O)[nH]ccc32)C1 [Example 4-1, tert-butyl 3-(cyanomethyl)-3-(4-oxo-3-((2-(trifluoromethyl)pyridin-4-yl)amino)-4,5-dihydro-1H-pyrazolo[43-c]pyridin-1-yl)azetidine-1-carboxylate] | 32.9 | 218 |
| CC(C)(C)OC(=O)N1CCC(CC#N)(n2nc(Nc3ccc([C@]4(C(F)(F)F)CCCN4)cc3)c3c(=O)[nH]ccc32)CC1 (single isomer, unassigned) [Example 21-19, (S or R)-tert-butyl 4-(cyanomethyl)-4-(4-oxo-3-(4-(2-(trifluoromethyl)pyrrolidin-2-yl)phenylamino)-4,5-dihydropyrazolo[4,3-c]pyridin-1-yl)piperidine-1-carboxylate] | 0.45 | 0.5 |
| N#CC[C@]1(n2nc(Nc3ccc(Cl)cc3)c3c(=O)[nH]ccc32)CCOC1 (single isomer, unassigned) [Example 5-242, [(3S or 3R)-3-{3-[(4-chlorophenyl)amino]-4-oxo-4,5-dihydro-1H-pyrazolo[4,3-c]pyridin-1-yl}tetrahydrofuran-3-yl]acetonitrile] | 14 | 130 |
| CC(c1ccc(Nc2nn([C@]3(CC#N)CCCOC3)c3cc[nH]c(=O)c23)cc1)N1CCCC1 (single isomer, unassigned) [Example 5-201, {(3S)-3-[4-oxo-3-({4-[(1R or 1S)-1-pyrrolidin-1-ylethyl]phenyl}amino)-4,5-dihydro-1H-pyrazolo[4,3-c]pyridin-1-yl]tetrahydro-2H-pyran-3-yl}acetonitrile] | 0.49 | 0.27 |
| CN1Cc2cc(Nc3nn([C@]4(CC#N)CC[C@@H](N(C)C)CC4)c4cc[nH]c(=O)c34)ccc2S1(=O)=O [Example 18-34, Trans 2-(4-(Dimethylamino)-1-(3-((2-methyl-1,1-dioxido-2,3-dihydrobenzo-[d]isothiazol-6-yl)amino)-4-oxo-4,5-dihydro-1H-pyrazolo[4,3-c]pyridin-1-yl)cyclohexyl)acetonitrile] | 1.07 | 12.1 |
| CN(C)S(=O)(=O)c1ccc(Nc2nn(C3(CC#N)CCN(C(=O)CCC#N)CC3)c3cc[nH]c(=O)c23)cc1 [Example 9-22, 4-({1-[4-(cyanomethyl)-1-(3-cyanopropanoyl)piperidin-4-yl]-4-oxo-4,5-dihydro-1H-pyrazolo[4,3-c]pyridin-3-yl}amino)-N,N-dimethylbenzenesulfonamide] | 0.09 | 0.21 |

More lines, now with the values ahead:

| IC50 [1] [nM] | IC50 [2] [nM] | Structure (SMILES) |
| --- | --- | --- |
| 0.21 | 0.31 | Cc1cc(Nc2nn([C@]3(CC#N)CC[C@@H](C(=O)OC(C)(C)C)OC3)c3cc[nH]c(=O)c23)ccc1C(=O)N1CCOC(C)C1 (single isomer, unassigned) [Example 20-10, (2S,5S)-tert-butyl 5-(cyanomethyl)-5-(3-((3-methyl-4-((S or R)-2-methylmorpholine-4-carbonyl)phenyl)amino)-4-oxo-4,5-dihydro-1H-pyrazolo[4,3-c]pyridin-1-yl)tetrahydro-2H-pyran-2-carboxylate] |
| 0.18 | 0.17 | Cc1cc(Nc2nn(C3(CC#N)CCN(C(=O)OC(C)(C)C)CC3)c3cc[nH]c(=O)c23)ccc1C(=O)N1CCOCC1 [Example 21-20, tert-butyl 4-(cyanomethyl)-4-(3-(3-methyl-4-(morpholine-4-carbonyl)phenylamino)-4-oxo-4,5-dihydropyrazolo[4,3-c]pyridin-1-yl)piperidine-1-carboxylate] |
| 0.1 | 0.15 | Cc1cc(Nc2nn([C@]3(CC#N)CC[C@@H](C(=O)OC(C)(C)C)OC3)c3cc[nH]c(=O)c23)ccc1C(=O)N1C[C@@H]2C[C@H]1CO2 [Example 20-16, (2S,5S)-tert-butyl 5-(3-((4-((1S,4S)-2-oxa-5-azabicyclo[2.2.1]heptane-5-carbonyl)-3-methylphenyl)amino)-4-oxo-4,5-dihydro-1H-pyrazolo[4,3-c]pyridin-1-yl)-5-(cyanomethyl)tetrahydro-2H-pyran-2-carboxylate] |
| 0.61 | 1.22 | CO[C@H]1CCN(C(=O)c2ccc(Nc3nn([C@]4(CC#N)CCCOC4)c4cc[nH]c(=O)c34)cc2C)C1 [Example 5-116, 2-((S)-3-(3-((4-((S)-3-methoxypyrrolidine-1-carbonyl)-3-methylphenyl)amino)-4-oxo-4,5-dihydro-1H-pyrazolo[4,3-c]pyridin-1-yl)tetrahydro-2H-pyran-3-yl)acetonitrile] |
| 0.21 | 0.21 | CC(C)(C)N1Cc2cc(Nc3nn([C@]4(CC#N)CC[C@@H](N5CC(F)C5)CC4)c4cc[nH]c(=O)c34)ccc2S1(=O)=O [Example 18-35] |
| 0.35 | 5.29 | CC(C)(C)OC(=O)[C@@H]1CC[C@@](CC#N)(n2nc(Nc3cnc4ccccc4c3)c3c(=O)[nH]ccc32)CO1 [Example 5-221, (2S,5S)-tert-butyl 5-(cyanomethyl)-5-(4-oxo-3-(quinolin-3-ylamino)-4,5-dihydro-1H-pyrazolo[4,3-c]pyridin-1-yl)tetrahydro-2H-pyran-2-carboxylate] |
| 0.18 | 0.49 | CC(C)(C)OC(=O)[C@@H]1CC[C@@](CC#N)(n2nc(Nc3ccc([C@@H](N)C(F)(F)F)cc3)c3c(=O)[nH]ccc32)CO1 (single isomer, unassigned) [Example 5-51, (2S,5S)-tert-butyl 5-(3-((4-((R or S)-1-amino-2,2,2-trifluoroethyl)phenyl)amino)-4-oxo-4,5-dihydro-1H-pyrazolo [4,3-c]pyridin-1-yl)-5-(cyanomethyl)tetrahydro-2H-pyran-2-carboxylate] |
| 0.14 | 0.17 | Cc1cc(Nc2nn([C@]3(CC#N)CC[C@@H](C(=O)OC(C)(C)C)OC3)c3cc[nH]c(=O)c23)ccc1C(=O)N1CCOCC1C (single isomer, unassigned) [Example 20-9, (2S,5S)-tert-butyl 5-(cyanomethyl)-5-(3-((3-methyl-4-((S or R)-3-methylmorpholine-4-carbonyl)phenyl)amino)-4-oxo-4,5-dihydro-1H-pyrazolo[4,3-c]pyridin-1-yl)tetrahydro-2H-pyran-2-carboxylate] |
| 0.25 | 0.35 | CC(C)(C)OC(=O)[C@@H]1CC[C@@](CC#N)(n2nc(Nc3ccc(C4(C(F)(F)F)CCCCN4)cc3)c3c(=O)[nH]ccc32)CO1 (single isomer, unassigned) [Example 5-287, (2S,5S)-tert-butyl 5-(cyanomethyl)-5-(4-oxo-3-((4-((S or R)-2-(trifluoromethyl)piperidin-2-yl)phenyl)amino)-4,5-dihydro-1H-pyrazolo[4,3-c]pyridin-1-yl)tetrahydro-2H-pyran-2-carboxylate] |
| 0.07 | 0.2 | CC(C)(C)OC(=O)[C@@H]1CC[C@@](CC#N)(n2nc(Nc3ccc4c(c3)CN(CC(F)(F)F)C4=O)c3c(=O)[nH]ccc32)CO1 [Example 5-95, (2S,5S)-tert-butyl 5-(cyanomethyl)-5-(4-oxo-3-((1-oxo-2-(2,2,2-trifluoroethyl)isoindolin-5-yl)amino)-4,5-dihydro-1H-pyrazolo[4,3-c]pyridin-1-yl)tetrahydro-2H-pyran-2-carboxylate] |
